Results on 3 molecules are retold here after patent US6350739B1, “Methods of prevention and treatment of ischemic damage” (University of Florida Resarch Foundation, Inc., priority 1999, dated 2002).

Entries after “also recorded” stand apart in the source; their conditions may differ. Marks after values point to notes of the source that are not given here.

Experiment [1] concerns ischemia induced by middle cerebral artery occlusion (MCAO). As to the kind of experiment: Post-treatment at 0.5, 1, 2, 3 and 4 hours after MCAO, ischemic lesion volume. The settings on record: iv 100 μg/kg HPCD-complexed plus Silastic pellet at 0.5, 1, 2, or 3 hours post-occlusion; 48 hours after MCAO. Type of experiment: in vivo, rat.
Protocol: Ovariectomized, non-treated animals (OVX) and non-ovariectomized, non-treated animals (INT) were used as controls (n=12 and n=6, respectively). At 48 hours following MCAO, animals were sacrificed and ischemic lesion volume was determined by obtaining brain sections as previously described and staining with TTC.
The test system is the same in experiment [2]. The experiment is described as follows: Pretreatment with estrogen compound before middle cerebral artery occlusion (MCAO) in ovariectomized rats. Details: % Survival: concentration or dose not given beside the values. In kind it is in vivo, rat. On the procedure: Rats were used as experimental models to test the effects of estrogen compounds in protecting against ischemic damage. To remove the naturally occurring source of estrogen, ovariectomies were performed prior to induction of ischemia.
Subsequent to the ovariectomy, rats were treated with an estrogen compound either by subcutaneous delivery with Silastic® tubes 24 hours prior to the MCA occlusion or by intravenous delivery as follows:
Subcutaneous sustained delivery: 17β- or 17α-estradiol was packed into 5 mm long Silastic® tubes (Dow-Corning, Midland, Mich.) according to the method of Mohammed et al. 1985 Ann. Neurol 18, 705-711. Sham (empty) tubes were similarly prepared as estrogen negative controls. […]
The control was administered HPCD only. The chemical delivery system is formulated so that the estrogen is slowly released from the carrier.
At 7 to 8 days after ovariectomy, a method for occluding the […] was applied to the rat using modifications of the methods of Longa et al. (1989) Stroke, vol. 20, 84-91; and Nagasawa et al. (1989) Stroke, vol.20, 1037-1043, with certain modifications, as described herein.
Animals were anesthetized by ip injection with ketamine (60 mg/kg) and xylazine (10 mg/kg). Rectal temperature was monitored and maintained between 36.5 and 37.0 C with a heat lamp throughout the entire procedure. The left carotid artery was exposed through a midline cervical incision. The left sternohyloid, sternomastoid, digastric (posterior belly) and the omohyloid muscles were divided and retracted. Part of the greater horn of the hyloid bone was cut to facilitate exposure of the distal external carotid artery (ECA). The common carotid artery (CCA), ECA, and internal carotid artery (ICA) were dissected away from adjacent nerves. The distal ECA and its branches, the CCA, and the pterygopalatine arteries were coagulated completely. A microvascular clip was placed on the ICA near skull base. A 2.5 cm length of 3-0 monofilament nylon suture was heated to create a globule for easy movement and blocking of the lumen of the vessel. This was introduced into the ECA lumen through the puncture. The suture was gently advanced to the distal ICA until it reached the clipped position. The microvascular clip was then removed and the suture was inserted until resistance was felt. The distance between the CCA bifurcation and the resistive point was about 1.8 cm. This operative procedure was completed within 10 minutes without bleeding. After the prescribed occlusion tine (40 minutes), the suture was withdrawn from the ICA and the distal ICA was immediately cauterized.
Animals that survived until the scheduled sacrifice time were sacrificed by decapitation. Scheduled post-ischemic sacrifices occurred at 6 hours, 24 hours and 1 week post MCAO (Table 1). For the 6-hour sample, animals were monitored continuously. […] Similarly, animals scheduled for the 1 week post-ischemic sacrifice were monitored for the first 4 hours after surgery and then daily thereafter.
The brains were isolated from the decapitated heads, sliced into 3 or 5 coronal tissue slices as described below and then stained with hematoxylin and eosin to determine the extent of the ischemic area Stained slices were photographed and subsequently imaged using a Macintosh Cadre 800 computer, equipped with an Image 1.47 software program for the assessment of the cross-sectional area of the ischemic lesion. These images and the calculated area of ischemic damage were stored in the program for later retrieval and data reduction. The significance of differences in mortality among the different treatment groups was determined using Chi-Square analysis.
Ovariectomized rats were treated with 5 mm Silastic® tubes containing 17α-estradiol at 24 hours prior to MCAO. At 24 hours after the MCAO, the animals were sacrificed and the brains extracted.

The test system of experiment [3] is middle cerebral artery (MCA) occlusion. The experiment is described as follows: Pretreatment with ent-17β-estradiol or 17β-estradiol sc in oil before MCA occlusion. Type of experiment: in vivo, Sprague-Dawley female rats. The settings on record: for infarct area (mean±SEM): 100 μg/kg sc in oil 2 hours prior to 60 minute MCA occlusion, 24 hours reperfusion, vehicle 13.3±2.0. On the procedure:
Sprague-Dawley female rats ([…] body weight) were purchased from Charles River Laboratories, Inc. (Wilmington, Mass.). They were housed in pairs in hanging, stainless steel cage in a temperature controlled room (25° C.) with daily light cycle (light on 0700 to 1900 h daily) for a minimum of 3 days before surgery. All rats had free access to Purina Rat Chow and tap water. All procedures performed on animals were reviewed and approved by the Institutional Animal Care and Use Committee of the University of Florida before initiation of the study. Animals were ovariectomized at 1 week prior to middle cerebral artery (MCA) occlusion.
MCAO was achieved according to the methods described previously by us. Briefly, following administration of anesthetics of ketamine (60 mg/kg, ip) and xylazine (10 mg/kg, ip), the common carotid artery […] on the left side were exposed through a midline cervical incision and then gently dissected away from adjacent nerves. A 3-0 monofilament nylon suture was introduced into the left […] and gently advanced to the distal ICA until resistance was felt where the suture passed the bifurcation of the MCA and anterior cerebral artery (ACA). The thread was left in place for 60 minutes after which time re-perfusion was initiated. Rectal temperature was monitored and maintained between 36.5 and 37.0° C. during the entire stroke procedure. Each group of animals was decapitated after 24 hours of reperfusion. The brain was removed and placed in a metallic brain matrix for tissue slicing immediately after sacrifice. Five slices were made at […] posterior to the olfactory bulb. The slices were incubated for 30 minutes in a 2% solution of 2,3,5-triphenyltetrazolium chloride (ITC) in physiological saline at 37° C. and then were fixed in 10% formalin. The stained slices were photographed and subsequently measured for the surface area of the slices and the ischemic lesion area. Ischemic lesion volume was calculated as by the sums of the areas of ischemic lesion across the five slices divided by the total cross sectional area of these five brain slices.

Experiment [4] concerns primary rat brain capillary endothelial cells (BCEC). The experiment is described as follows: Brain capillary endothelial cell mortality under combined anoxia and hypoglycemia. The settings on record: 2 nM; 100 mg % glucose and 2 hours anoxia. In kind it is cell-based.
Experiment [5] has the same test system. As to the kind of experiment: Brain capillary endothelial cell mortality under hypoglycemia (Trypan blue). In kind it is cell-based. The settings on record: 2 nM. On the procedure:
Neurochemistry vol. 25, 715-717, 1975, incorporated herein by reference. […] The glucose concentration of the culture media was then adjusted from 20 mg % to 200 mg % by adding appropriate amount of D-(+)-glucose to the glucose-free media and monitored by Glucose and L-Lactate Analyzer (YSI model 2300 STAT plus, YSI, Inc., Yellow Springs, Ohio). The hypoglycemic cultures were maintained for 24 hours or 48 hours prior to staining with Trypan blue. Cell mortality was counted using Trypan blue staining method. Cell death percentage was calculated as dead cell/alive cell×100%. Statistical methods used included two-way analysis of variance, applied to determine the significance of the difference among the experimental groups. Kruskal-Wallis nonparametric analysis was used for data presented as percentage. […] P<0.05 was considered significant.

Experiment [6] deals with ischemia induced by middle cerebral artery occlusion (MCAO). As to the kind of experiment: Post-treatment with E2-CDS after onset of MCAO in ovariectomized rats. Type of experiment: in vivo, rat.
Protocol: At 7 to 8 days after ovariectomy, a method for occluding the middle carotid artery was applied to the rat using modifications of the methods of Longa et al. (1989) Stroke, vol.
Animals were anesthetized by ip injection with ketamine (60 mg/kg) and xylazine (10 mg/kg). Rectal temperature was monitored and maintained between 36.5 and 37.0 C with a heat lamp throughout the entire procedure. The left carotid artery was exposed through a midline cervical incision. The left sternohyloid, sternomastoid, digastric (posterior belly) and the omohyloid muscles were divided and retracted. Part of the greater horn of the hyloid bone was cut to facilitate exposure of the distal external carotid artery (ECA). The common carotid artery (CCA), ECA, and internal carotid artery (ICA) were dissected away from adjacent nerves. The distal ECA and its branches, the CCA, and the pterygopalatine arteries were coagulated completely. A microvascular clip was placed on the ICA near skull base. A 2.5 cm length of 3-0 monofilament nylon suture was heated to create a globule for easy movement and blocking of the lumen of the vessel. This was introduced into the ECA lumen through the puncture. The suture was gently advanced to the distal ICA until it reached the clipped position. The microvascular clip was then removed and the suture was inserted until resistance was felt. […]
Experiment [7] has as its system primary rat brain capillary endothelial cells (BCEC). The experiment is described as follows: Brain capillary endothelial cell mortality under anoxia (Trypan blue). In kind it is cell-based. The settings on record: 2 nM, 200 mg % glucose.
Protocol: Primary rat brain capillary endothelial cells (BCEC) cultures were prepared following the method of Goldstein, J. Neurochemistry vol.
Nitrogen gas was influxed to replace the oxygen inside the chamber. The chamber was sealed and placed in the incubator for four hours for nonhypoglycemic cultures and 2 hours for hypoglycemic cultures.
[8] abbreviates: Total of all planned sacrifice times.
[9] abbreviates: planned sacrifice 1 Day after MCAO.
The mark [10] stands for this setting: planned sacrifice 1 Week after MCAO.
The mark [11] stands for this setting: planned sacrifice 6 hrs after MCAO.
Where [12] appears, read: 5 mm Silastic tube 24 hours prior to MCAO, sacrifice 24 hours after MCAO, vs sham.

As usually defined, the mortality is the percentage killed. Take `C[C@]12CC[C@@H]3c4ccc(O)cc4CC[C@H]3[C@@H]1CC[C@@H]2O` [17β-estradiol]: the “protection, ischemic lesion volume” value in experiment [1] is “significant protection”. For the same molecule, in experiment [2] (10 μg/kg sc injection two hours prior to MCAO, sacrifice at 24 hours, 9 mm caudal to olfactory bulb), the “reduction of ischemic lesion size of the whole coronal section, region C” value is reported as 46.3%. Moreover, the “reduction of ischemic lesion size of the whole coronal section, region D” value in experiment [2] (10 μg/kg sc injection two hours prior to MCAO, sacrifice at 24 hours, 11 mm caudal to olfactory bulb) is 44.1%. For the same molecule, the “Number of Animals Alive” value in experiment [2] (setting [8]) stood at 14; in experiment [2] (setting [9]), 8; in experiment [2] (setting [10]), 3; in experiment [2] (setting [11]) it was 3. The “Number of Animals Dead” value worked out at 4 in experiment [2] (setting [8]), 0 in experiment [2] (setting [9]), 1 in experiment [2] (setting [10]) and 3 in experiment [2] (setting [11]). The “% Survival” value in experiment [2] (Total of all planned sacrifice times, pretreatment 24 hours prior to MCAO) is 78%; in experiment [2] (Total of all planned sacrifice times, pretreatment 24 hours prior to MCAO, listed as E2 Implant), 78* %; in experiment [2] (planned sacrifice 1 Day after MCAO, pretreatment 24 hours prior to MCAO), 100* %; in experiment [2] (planned sacrifice 1 Week after MCAO, pretreatment 24 hours prior to MCAO), 75* %; in experiment [2] (planned sacrifice 6 hrs after MCAO, pretreatment 24 hours prior to MCAO), 50%. Moreover, the “ischemic lesion, percent of cross-sectional area of brain sections” value in experiment [2] (pretreatment 24 hours prior to MCAO, 3 brain slices, sacrifice 1 day or 1 week, sham 25.6±5.7%) is 9.8±4.0%. Also, the mortality in experiment [2] (pretreatment of ovariectomized rats before MCAO, untreated 65%) was determined as 22%. The “protective effect in tissue slices A-D (FIG. 2)” value in experiment [2] (subcutaneous injection two hours prior to ischemic event) is on record as “significant protective effect”. The “infarct area (mean±SEM)” value in experiment [3] worked out at 5.3±1.6. In addition, the reduction of infarct in experiment [3] (100 μg/kg sc in oil 2 hours prior to MCA occlusion, vs vehicle) is given as 60%. Moreover, in experiment [4], the “protection of BCEC from cumulative effect of hypoglycemia and anoxia” value is recorded as “effective in protecting cultured BCEC”. In addition, the “cell loss saved vs control” value in experiment [5] (medium glucose 20 mg %) was determined as 23. %; in experiment [5] (medium glucose 40 mg %) it was 28.4%; in experiment [5] (medium glucose 100 mg %), 35.9%. In addition, in experiment [5] (normal glucose 200 mg %), the “difference in percent cell death with and without estrogen” value was “Little difference”. The “reduction of ischemic area” value in experiment [6] (administered 40 minutes after MCAO, range over slices) is given as 45-90%. In addition, the “reduction of ischemic area (area under the ischemic curve)” value in experiment [6] (administered 90 minutes after MCAO) amounted to 31%. For the same molecule, the figures for the “reduction of cell death” value in experiment [7] (1 hour anoxic insult) and in experiment [7] (4 hour anoxic insult) were 28.4% and 18.4%, respectively.

Consider `C[C@@]12CC[C@H]3c4ccc(O)cc4CC[C@@H]3[C@H]1CC[C@H]2O` [ent-17β-estradiol, (8α,9β,13α,14β,17α)-estra-1,3,5(10)-triene-3,17-diol], for which the “effectiveness in reducing percent lesion volume compared with 17β-estradiol” value in experiment [3] (100 μg/kg sc in oil) is “as effective in reducing the percent lesion volume as 17β-estradiol; also recorded: as effective a therapeutic agent as 17β-estradiol”. Moreover, the “infarct area (mean±SEM)” value in experiment [3] is reported as 5.3±1.7.

`C[C@]12CC[C@@H]3c4ccc(O)cc4CC[C@H]3[C@@H]1CC[C@H]2O` [17α-estradiol]: in experiment [2] (setting [12]), the “reduction of ischemic area, slice C” value turned out to be 55%; the “reduction of ischemic area, slice D” value is 66%; the “reduction of ischemic area, slice E” value turned out to be 81%. Moreover, the “protective effect in tissue slices A-E (FIG. 3)” value in experiment [2] (sustained subcutaneous delivery initiated 24 hours prior to ischemic event) is given as “significant protective effect”.
